Experimental data from ChEMBL document CHEMBL5528083, “Discovery of a Novel Thienopyrimidine Compound as a Urate Transporter 1 and Glucose Transporter 9 Dual Inhibitor with Improved Efficacy and Favorable Druggability” (J Med Chem, 2024).
pIC50: −log10 of the molar value.

How the values were obtained:
[1] = Subacute toxicity in Kunming male mouse assessed as change in body weight at 100 mg/kg, po administered every other day for 14 days; type: organism-based; conditions: in vivo, 336 h, time 14 day
[2] = Acute toxicity in Kunming mouse assessed as lethargy at 250 to 1000 mg/kg, po administered as single dose monitored for 7 days; type: organism-based; conditions: in vivo, 168 h, dose 250-1000 mg/kg, time 7 day
[3] = AUC (0 to t) in Sprague-Dawley rat at 2 mg/kg, iv measured upto 24 hrs by LC-MS/MS-AR analysis; type: ADME, organism-based; conditions: in vivo
[4] = tested on: Rattus norvegicus; assay: Reduction in serum uric acid level in po dosed acute hyperuricemia state Sprague-Dawley rat model assessed as SUA level (reference value: 955.20 +/- 85.56 uM); type: functional
[5] = Acute toxicity in Kunming mouse assessed as change in body weight at 250 to 1000 mg/kg, po administered as single dose monitored for 7 days; type: organism-based; conditions: in vivo, 168 h, dose 250-1000 mg/kg, time 7 day
[6] = Subacute toxicity in Kunming mouse assessed as abnormal behavior at 100 mg/kg, po administered every other day for 14 days; type: organism-based; conditions: in vivo, 336 h, time 14 day
[7] = AUC (0 to infinity) in Sprague-Dawley rat at 2 mg/kg, iv measured upto 24 hrs by LC-MS/MS-AR analysis; type: ADME, organism-based; conditions: in vivo
[8] = species: Mus musculus; assay: Reduction in serum uric acid level in acute hyperuricemia state Kunming mouse model assessed as SUA level by measuring decrease ratio relative to control; type: functional; set-up: concentration or dose not given beside the values
[9] = target: T1, Solute carrier family 22 member 12 (Homo sapiens, UniProt Q96S37); assay: Inhibition of human URAT1 expressed in HEK293T cells using 14C- uric acid assessed as uric acid absorption by measuring intracellular liquid radiation value by liquid scintillation counting analysis; type: cell-based
T1 sequence (Q96S37 whole entry): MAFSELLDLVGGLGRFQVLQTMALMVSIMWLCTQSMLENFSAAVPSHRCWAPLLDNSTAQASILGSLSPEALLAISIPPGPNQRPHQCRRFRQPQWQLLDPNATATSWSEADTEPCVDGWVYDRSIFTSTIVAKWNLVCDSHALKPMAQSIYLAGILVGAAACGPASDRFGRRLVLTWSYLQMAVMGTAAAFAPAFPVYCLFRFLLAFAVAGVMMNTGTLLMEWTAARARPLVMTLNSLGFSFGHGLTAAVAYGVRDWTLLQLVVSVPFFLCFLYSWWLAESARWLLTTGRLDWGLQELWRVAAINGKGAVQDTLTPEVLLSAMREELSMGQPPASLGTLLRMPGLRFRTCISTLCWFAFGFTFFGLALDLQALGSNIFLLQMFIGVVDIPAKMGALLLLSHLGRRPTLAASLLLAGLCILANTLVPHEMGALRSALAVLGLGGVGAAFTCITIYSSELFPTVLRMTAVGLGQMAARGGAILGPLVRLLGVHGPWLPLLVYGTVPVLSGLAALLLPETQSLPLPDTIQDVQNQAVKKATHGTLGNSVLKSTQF

[10] = tested on: Mus musculus; assay: Reduction in serum uric acid level in acute hyperuricemia state Kunming mouse model assessed as SUA level by measuring decrease ratio at 1 mg/kg, po relative to control; type: functional; set-up: scale not given: the % may be the effect or the level left
[11] = AUC (0 to t) in Sprague-Dawley rat at 2 mg/kg, po measured upto 24 hrs by LC-MS/MS-AR analysis; type: ADME, organism-based; conditions: in vivo
[12] = Acute toxicity in Kunming mouse assessed as convulsions at 250 to 1000 mg/kg, po administered as single dose monitored for 7 days; type: organism-based; conditions: in vivo, 168 h, dose 250-1000 mg/kg, time 7 day
[13] = target: T2, Solute carrier family 2, facilitated glucose transporter member 9 (Mus musculus, UniProt Q3T9X0); assay: Inhibition of mouse EGFP-tagged GLUT9 expressed in HEK293T cells assessed as inhibition rate by measuring relative current by patch clamp electrophysiological analysis relative to control; type: cell-based
T2 sequence (Q3T9X0 whole entry): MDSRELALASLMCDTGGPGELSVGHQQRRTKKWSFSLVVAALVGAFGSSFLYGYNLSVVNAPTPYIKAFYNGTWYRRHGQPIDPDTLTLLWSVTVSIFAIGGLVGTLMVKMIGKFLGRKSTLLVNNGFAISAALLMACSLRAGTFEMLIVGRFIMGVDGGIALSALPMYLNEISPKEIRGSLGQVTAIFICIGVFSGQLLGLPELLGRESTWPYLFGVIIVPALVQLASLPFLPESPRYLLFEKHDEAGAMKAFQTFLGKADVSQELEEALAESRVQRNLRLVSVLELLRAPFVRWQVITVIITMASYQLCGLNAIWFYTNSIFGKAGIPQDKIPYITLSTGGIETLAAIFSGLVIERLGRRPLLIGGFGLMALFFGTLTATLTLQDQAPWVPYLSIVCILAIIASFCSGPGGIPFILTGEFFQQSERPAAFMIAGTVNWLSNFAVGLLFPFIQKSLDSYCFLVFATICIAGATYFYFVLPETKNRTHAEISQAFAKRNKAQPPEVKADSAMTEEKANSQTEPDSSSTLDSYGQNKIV

[14] = Acute toxicity in Kunming mouse assessed as fatality rate at 500 mg/kg, po administered as single dose monitored for 7 days; type: organism-based; conditions: in vivo, po, 500 mg/kg, 168 h, time 7 day
[15] = tested on: Rattus norvegicus; assay: Reduction in serum uric acid level in po dosed acute hyperuricemia state Sprague-Dawley rat model assessed as SUA level by measuring decrease ratio relative to control; type: functional; set-up: scale not given: the % may be the effect or the level left
[16] = tested on: Rattus norvegicus; assay: Potency index, ratio of compound to lesinurad for reduction in serum uric acid level in po dosed acute hyperuricemia state Sprague-Dawley rat model assessed as decrease ratio of SUA level; type: functional
[17] = target: Cytochrome P450 3A4 (Homo sapiens, UniProt P08684); assay: Inhibition of CYP3A4 in human liver microsomes using midazolam measured after 40 mins incubation by LC-MS/MS analysis; type: ADME, Microsome
Chain of Cytochrome P450 3A4 (P08684 whole entry): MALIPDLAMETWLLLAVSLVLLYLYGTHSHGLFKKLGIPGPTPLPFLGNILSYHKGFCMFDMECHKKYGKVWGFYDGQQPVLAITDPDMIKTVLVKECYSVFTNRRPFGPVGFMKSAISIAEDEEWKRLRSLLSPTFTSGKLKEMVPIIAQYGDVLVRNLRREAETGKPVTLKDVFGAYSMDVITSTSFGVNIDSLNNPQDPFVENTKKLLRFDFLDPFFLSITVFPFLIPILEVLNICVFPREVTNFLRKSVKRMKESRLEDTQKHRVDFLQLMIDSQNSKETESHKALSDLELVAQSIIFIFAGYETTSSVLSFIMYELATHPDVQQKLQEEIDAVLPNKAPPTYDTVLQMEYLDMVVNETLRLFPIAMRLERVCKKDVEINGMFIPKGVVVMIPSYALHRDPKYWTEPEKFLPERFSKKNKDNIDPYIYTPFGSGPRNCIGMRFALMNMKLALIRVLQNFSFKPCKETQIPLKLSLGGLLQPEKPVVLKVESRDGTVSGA

[18] = Clearance in Sprague-Dawley rat at 2 mg/kg, iv measured upto 24 hrs by LC-MS/MS-AR analysis; type: ADME, organism-based; conditions: in vivo
[19] = AUC (0 to infinity) in Sprague-Dawley rat at 2 mg/kg, po measured upto 24 hrs by LC-MS/MS-AR analysis; type: ADME, organism-based; conditions: in vivo
[20] = species: Mus musculus; assay: Reduction in serum uric acid level in acute hyperuricemia state Kunming mouse model assessed as SUA level; type: functional
[21] = MRT (0 to infinity) in Sprague-Dawley rat at 2 mg/kg, po measured upto 24 hrs by LC-MS/MS-AR analysis; type: ADME, organism-based; conditions: in vivo
[22] = tested on: Mus musculus; assay: Reduction in serum uric acid level in acute hyperuricemia state Kunming mouse model assessed as SUA level by measuring decrease ratio at 0.5 mg/kg, po relative to control; type: functional; set-up: scale not given: the % may be the effect or the level left
[23] = MRT (0 to infinity) in Sprague-Dawley rat at 2 mg/kg, iv measured upto 24 hrs by LC-MS/MS-AR analysis; type: ADME, organism-based; conditions: in vivo
[24] = Subacute toxicity in Kunming female mouse assessed as change in body weight at 100 mg/kg, po administered every other day for 14 days; type: organism-based; conditions: in vivo, 336 h, time 14 day
[25] = target: Cytochrome P450 2C9 (Homo sapiens, UniProt P11712); assay: Inhibition of CYP2C9 in human liver microsomes measured after 40 mins incubation by LC-MS/MS analysis; type: ADME, Microsome
Chain of Cytochrome P450 2C9 (P11712 whole entry): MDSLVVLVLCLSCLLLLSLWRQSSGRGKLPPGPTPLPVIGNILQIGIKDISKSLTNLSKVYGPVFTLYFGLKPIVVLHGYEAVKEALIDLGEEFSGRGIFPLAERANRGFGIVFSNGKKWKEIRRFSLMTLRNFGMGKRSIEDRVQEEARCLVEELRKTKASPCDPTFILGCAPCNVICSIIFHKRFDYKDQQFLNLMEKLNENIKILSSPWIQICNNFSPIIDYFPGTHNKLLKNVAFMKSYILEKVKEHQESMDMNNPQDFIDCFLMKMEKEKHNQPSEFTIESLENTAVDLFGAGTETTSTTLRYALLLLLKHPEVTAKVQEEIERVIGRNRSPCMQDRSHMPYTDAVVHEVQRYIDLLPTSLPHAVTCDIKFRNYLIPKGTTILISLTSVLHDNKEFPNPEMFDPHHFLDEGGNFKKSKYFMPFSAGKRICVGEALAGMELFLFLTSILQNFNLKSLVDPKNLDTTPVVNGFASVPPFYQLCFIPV

Q: What does the source list for `O=C(O)CCCSc1nc(Nc2ccc(C3CC3)c3ccccc23)c2sccc2n1`?
A: Activity [1]: Toxic; Activity [2]: Non-Toxic; AUC(0-t) at 24 h [3]: 1900 ng·h/mL; Activity [4]: 190.8 µM; Activity [5]: Toxic; Activity [6]: Non-Toxic; AUC [7]: 1922.9 ng·h/mL; Activity [8]: 93.2%; pIC50 [9]: 5.70; Activity [10]: 89.08%; AUC(0-t) at 24 h [11]: 1810 ng·h/mL; Activity [12]: Non-Toxic; pIC50 [13]: 4.74; Activity [14]: Non-Toxic; Activity [15]: 90.12%; Ratio [16]: 1.8; pIC50 [17]: < 4.70; clearance [18]: 17 mL/min/kg; AUC [19]: 1929.1 ng·h/mL; Activity [20]: 191.6 µM; MRT inf [21]: 2.5 h; Activity [22]: 66.49%; MRT inf [23]: 0.5 h; Activity [24]: Toxic; pIC50 [25]: 5.70
